# Like-named read-outs stand apart in the source and are kept apart here.
# Experiments:
# [1] = system: Bcl2l11; test: Biomarkers validation by q-pcr in precision cut liver slices: Bcl2l11 expression
# Protocol: (§1) 23-weeks old male C57BL/6 mice were obtained from Harlan (Horst, The Netherlands). Animals were kept for 1 week at a housing temperature of 22°C and at a relative humidity of 30-70%. The lighting cycle was 12-h light and 12-h dark. At the age of 24 weeks animals were sacrificed by an overdose of isoflurane. The treatment protocol was approved by the Ethical Committee for Animal Experiments at Wageningen University.
# (§2) Immediately after the animals were killed the liver was perfused with PBS and placed in ice-cold Krebs-Henseleit buffer (KHB) (pH 7.4, supplemented with 11 mM glucose). Liver tissue was transported to the laboratory within approximately 30 min and cylindrical liver cores were produced using a surgical biopsy punch with diameter of 5 mm (KAI, SynErgo Europe, Romania). Liver cores were placed in a Krumdieck tissue slicer (Alabama Research and Development, Munford, AL) filled with ice-cold KHB aerated with carbogen and supplemented with 11 mM glucose. Precesion cut liver slices (PCLS) with a diameter of 5 mm, a thickness of 0.2 mm and a weight of approximately 10 mg were prepared. Immediately after preparation, slices were transferred into culture plates filled with pre-warmed (37 degrees C) Williams E medium (WEM). Three liver slices were pre-cultured in one well of the 6-well plate filled with 4 ml of WEM for one hour with continuous shaking (70 rpm). Incubations were performed in an oxygen controlled incubator (Galaxy 48 R New Brunswick, Nijmegen, the Netherlands) at 80% of oxygen; 5% CO2 and the remaining gas volume was filled up to […] with N2. After one hour of pre-incubation, media were removed and replaced with fresh media containing test compounds or appropriate solvents. After incubations, samples were snap-frozen in liquid nitrogen and stored in -80 °C for further analysis. Samples dedicated to histology were stored in 4 % formaldehyde at room temperature.
# (§3) PCLS were incubated at the same conditions as described above. Slices were exposed for 24 and 48 hours to one concentration of the tested compounds or controls. Concentrations used in the exposure experiments were preselected in the dose selection experiments for each drug individually. […] For the necrotic compounds: 1000 uM acetaminophen, 5 µM paraquat and 1000 uM isoniazid. Liver slices obtained from five mice were used in five toxic compound or control exposure experiments performed at the same time. Dose selection experiments and exposure experiments were performed at different days. Therefore, ATP, LDH, and protein assays were performed again for the exposure experiments to confirm that the selected doses did also not affect slice viability in these experiments.
# (§4) In further studies, expression of ten candidate biomarkers in PCLS was analyzed by q-pcr using the Biorad CFX96 TM Real-Time Detection System (Bio-Rad, Veenendaal, The Netherlands) with the following cycling conditions: 15 min 95°C followed by 40 cycles of 15s 95 °C and 1 min 60 °C. Reactions were performed in 10 µl and contained 20 ng cDNA, 1x TaqMan PCR Master Mix (Applied Biosystems, Foster City, CA), and depending on the analysed gene, 250 nM probe and 900 nM primer (for actin b) or 1xTaqMan gene expression assay (for the remaining genes) (Applied Biosystems, foster City, CA).
# [2] = system: Parp16; test: Biomarkers validation by q-pcr in precision cut liver slices: Parp16 expression
# Protocol: as §1, §2, §3, §4
# [3] = system: Mras; test: Biomarkers validation by q-pcr in precision cut liver slices: Mras expression
# Protocol: as §1, §2, §3, §4
# [4] = system: Myo1e; test: Biomarkers validation by q-pcr in precision cut liver slices: Myo1e expression
# Protocol: as §1, §2, §3, §4
# [5] = system: Nme6; test: Biomarkers validation by q-pcr in precision cut liver slices: Nme6 expression
# Protocol: as §1, §2, §3, §4
# [6] = system: ABCG5; test: Biomarkers validation by q-pcr in precision cut liver slices: ABCG5 expression
# Protocol: as §1, §2, §3, §4
# [7] = system: ABCG8; test: Biomarkers validation by q-pcr in precision cut liver slices: ABCG8 expression
# Protocol: as §1, §2, §3, §4
# [8] = system: SERPINE1; test: Biomarkers validation by q-pcr in precision cut liver slices: SERPINE1 expression
# Protocol: as §1, §2, §3, §4
# [9] = system: BAAT; test: Biomarkers validation by q-pcr in precision cut liver slices: BAAT expression
# Protocol: as §1, §2, §3, §4
# [10] = system: KLF15; test: Biomarkers validation by q-pcr in precision cut liver slices: KLF15 expression
# Protocol: as §1, §2, §3, §4
# [11] = system: PCLS; test: Cytotoxicity analysis - dose selection experiments (LDH, ATP, protein assay)
# Protocol: as §1, §2, §3
smiles,measurement,setting,value
"C[n+]1ccc(-c2cc[n+](C)cc2)cc1 [PQ, paraquat]","*fold change 1, gene expression level Bcl2111",[1],"1,3"
same,"*fold change 2, gene expression level Bcl2111",[1],"1,1"
same,"*fold change 3, gene expression level Bcl2111",[1],"1,1"
same,"*fold change 4, gene expression level Bcl2111",[1],"1,2"
same,"*fold change 5, gene expression level Bcl2111",[1],"1,1"
same,"*fold change 1, gene expression level Parp 16",[2],"1,6"
same,"*fold change 2, gene expression level Parp 16",[2],"1,0"
same,"*fold change 3, gene expression level Parp 16",[2],"1,0"
same,"*fold change 4, gene expression level Parp 16",[2],"1,1"
same,"*fold change 5, gene expression level Parp 16",[2],"1,4"
same,"*fold change 1, gene expression level Mras",[3],"1,4"
same,"*fold change 2, gene expression level Mras",[3],"1,3"
same,"*fold change 3, gene expression level Mras",[3],"1,1"
same,"*fold change 4, gene expression level Mras",[3],"1,1"
same,"*fold change 5, gene expression level Mras",[3],"1,4"
same,"*fold change 1, gene expression level Myo 1e",[4],"1,1"
same,"*fold change 2, gene expression level Myo 1e",[4],"1,4"
same,"*fold change 3, gene expression level Myo 1e",[4],"1,1"
same,"*fold change 4, gene expression level Myo 1e",[4],"1,2"
same,"*fold change 5, gene expression level Myo 1e",[4],"1,2"
same,"*fold change 1, gene expression level Nme6",[5],"1,1"
same,"*fold change 2, gene expression level Nme6",[5],"-1,2"
same,"*fold change 3, gene expression level Nme6",[5],"1,0"
same,"*fold change 4, gene expression level Nme6",[5],"1,1"
same,"*fold change 5, gene expression level Nme6",[5],"1,2"
same,"*fold change 1, gene expression level ABCG5",[6],"1,1"
same,"*fold change 2, gene expression level ABCG5",[6],"1,1"
same,"*fold change 3, gene expression level ABCG5",[6],"1,7"
same,"*fold change 4, gene expression level ABCG5",[6],"-1,3"
same,"*fold change 5, gene expression level ABCG5",[6],"-1,6"
same,"*fold change 1, gene expression level ABCG8",[7],"1,0"
same,"*fold change 2, gene expression level ABCG8",[7],"-1,2"
same,"*fold change 3, gene expression level ABCG8",[7],"1,8"
same,"*fold change 4, gene expression level ABCG8",[7],"-1,3"
same,"*fold change 5, gene expression level ABCG8",[7],"-1,4"
same,"*fold change 1, gene expression level SERPINE1",[8],"2,7"
same,"*fold change 2, gene expression level SERPINE1",[8],"2,3"
same,"*fold change 3, gene expression level SERPINE1",[8],"2,7"
same,"*fold change 4, gene expression level SERPINE1",[8],"1,3"
same,"*fold change 5, gene expression level SERPINE1",[8],"1,9"
same,"MW test, gene expression level SERPINE1","[8]; Mann-Whitney test vs controls, 5 mice, mouse PCLS, same concentrations as fold change columns",* (A p-value <0.05 was considered significant)
same,"*fold change 1, gene expression level BAAT",[9],"-1,2"
same,"*fold change 2, gene expression level BAAT",[9],"-1,0"
same,"*fold change 3, gene expression level BAAT",[9],"1,7"
same,"*fold change 4, gene expression level BAAT",[9],"1,1"
same,"*fold change 5, gene expression level BAAT",[9],"-1,4"
same,"*fold change 1, gene expression level KLF15",[10],"1,3"
same,"*fold change 2, gene expression level KLF15",[10],"-1,0"
same,"*fold change 3, gene expression level KLF15",[10],"1,3"
same,"*fold change 4, gene expression level KLF15",[10],"1,1"
same,"*fold change 5, gene expression level KLF15",[10],"-1,2"
same,highest concentration that did not cause significant increase of toxicity,"[11]; mouse PCLS, LDH, ATP, and protein assay, concentration then used in exposure experiments",5 µM
"CC(=O)Nc1ccc(O)cc1 [APAP, acetaminophen]","*fold change 1, gene expression level Bcl2111","[1]; male, C57BL/6, mouse","1,9"
same,"*fold change 2, gene expression level Bcl2111","[1]; male, C57BL/6, mouse","1,1"
same,"*fold change 3, gene expression level Bcl2111","[1]; male, C57BL/6, mouse","2,0"
same,"*fold change 4, gene expression level Bcl2111","[1]; male, C57BL/6, mouse","2,4"
same,"*fold change 5, gene expression level Bcl2111","[1]; male, C57BL/6, mouse","1,7"
same,"*fold change 1, gene expression level Parp 16","[2]; male, C57BL/6, mouse","1,4"
same,"*fold change 2, gene expression level Parp 16","[2]; male, C57BL/6, mouse","-1,3"
same,"*fold change 3, gene expression level Parp 16","[2]; male, C57BL/6, mouse","1,4"
same,"*fold change 4, gene expression level Parp 16","[2]; male, C57BL/6, mouse","1,5"
same,"*fold change 5, gene expression level Parp 16","[2]; male, C57BL/6, mouse","1,6"
same,"*fold change 1, gene expression level Mras","[3]; male, C57BL/6, mouse","1,7"
same,"*fold change 2, gene expression level Mras","[3]; male, C57BL/6, mouse","-1,0"
same,"*fold change 3, gene expression level Mras","[3]; male, C57BL/6, mouse","1,3"
same,"*fold change 4, gene expression level Mras","[3]; male, C57BL/6, mouse","1,2"
same,"*fold change 5, gene expression level Mras","[3]; male, C57BL/6, mouse","1,4"
same,"*fold change 1, gene expression level Myo 1e","[4]; male, C57BL/6, mouse","1,1"
same,"*fold change 2, gene expression level Myo 1e","[4]; male, C57BL/6, mouse","-1,2"
same,"*fold change 3, gene expression level Myo 1e","[4]; male, C57BL/6, mouse","1,4"
same,"*fold change 4, gene expression level Myo 1e","[4]; male, C57BL/6, mouse","1,4"
same,"*fold change 5, gene expression level Myo 1e","[4]; male, C57BL/6, mouse","1,4"
same,"*fold change 1, gene expression level Nme6","[5]; male, C57BL/6, mouse","-1,2"
same,"*fold change 2, gene expression level Nme6","[5]; male, C57BL/6, mouse","-1,2"
same,"*fold change 3, gene expression level Nme6","[5]; male, C57BL/6, mouse","-1,1"
same,"*fold change 4, gene expression level Nme6","[5]; male, C57BL/6, mouse","-1,3"
same,"*fold change 5, gene expression level Nme6","[5]; male, C57BL/6, mouse","1,0"
same,"*fold change 1, gene expression level ABCG5","[6]; male, C57BL/6, mouse","-2,1"
same,"*fold change 2, gene expression level ABCG5","[6]; male, C57BL/6, mouse","-1,3"
same,"*fold change 3, gene expression level ABCG5","[6]; male, C57BL/6, mouse","1,4"
same,"*fold change 4, gene expression level ABCG5","[6]; male, C57BL/6, mouse","-1,4"
same,"*fold change 5, gene expression level ABCG5","[6]; male, C57BL/6, mouse","1,1"
same,"*fold change 1, gene expression level ABCG8","[7]; male, C57BL/6, mouse","-1,7"
same,"*fold change 2, gene expression level ABCG8","[7]; male, C57BL/6, mouse","-1,2"
same,"*fold change 3, gene expression level ABCG8","[7]; male, C57BL/6, mouse","1,4"
same,"*fold change 4, gene expression level ABCG8","[7]; male, C57BL/6, mouse","-1,1"
same,"*fold change 5, gene expression level ABCG8","[7]; male, C57BL/6, mouse","1,4"
same,"*fold change 1, gene expression level SERPINE1","[8]; male, C57BL/6, mouse","-1,6"
same,"*fold change 2, gene expression level SERPINE1","[8]; male, C57BL/6, mouse","-1,4"
same,"*fold change 3, gene expression level SERPINE1","[8]; male, C57BL/6, mouse","1,2"
same,"*fold change 4, gene expression level SERPINE1","[8]; male, C57BL/6, mouse","-1,3"
same,"*fold change 5, gene expression level SERPINE1","[8]; male, C57BL/6, mouse","1,5"
same,"*fold change 1, gene expression level BAAT","[9]; male, C57BL/6, mouse","-5,0"
same,"*fold change 2, gene expression level BAAT","[9]; male, C57BL/6, mouse","-2,0"
same,"*fold change 3, gene expression level BAAT","[9]; male, C57BL/6, mouse","-1,4"
same,"*fold change 4, gene expression level BAAT","[9]; male, C57BL/6, mouse","-2,8"
same,"*fold change 5, gene expression level BAAT","[9]; male, C57BL/6, mouse","-1,5"
same,"*fold change 1, gene expression level KLF15","[10]; male, C57BL/6, mouse","-1,5"
same,"*fold change 2, gene expression level KLF15","[10]; male, C57BL/6, mouse","-1,2"
same,"*fold change 3, gene expression level KLF15","[10]; male, C57BL/6, mouse","-1,4"
same,"*fold change 4, gene expression level KLF15","[10]; male, C57BL/6, mouse","-1,1"
same,"*fold change 5, gene expression level KLF15","[10]; male, C57BL/6, mouse","1,2"
same,highest concentration that did not cause significant increase of toxicity,"[11]; male, C57BL/6, mouse",1000 µM
"CCCC(CCC)C(=O)O [VA, valproic acid]",highest concentration that did not cause significant increase of toxicity,"[11]; male, C57BL/6, mouse",200 µM

# Reference: EP2762573A1, “In vitro method for determining cholestatic properties of a compound” (priority 2013, dated 2014)
